Source: PubChem BioAssay (NCI)
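Cells were grown in 96-well plates and exposed to each compound for 48 hours at five concentrations; endpoints were interpolated linearly between bracketing concentrations, or set to the highest concentration if not reached. Here, GI50 denotes the concentration required for 50% inhibition of growth. TGI is the concentration that stops growth completely.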

Experiments:
Test in all cases: NCI anticancer screen, dose series, 48 h
[1] = test system: 786-0 renal
[2] = test system: A549 NSCLC
[3] = test system: ACHN renal
[4] = test system: BT-549 breast
[5] = test system: CAKI-1 renal
[6] = test system: CCRF-CEM leukemia
[7] = test system: COLO 205 colon
[8] = test system: DU-145 prostate
[9] = test system: EKVX NSCLC
[10] = test system: HCC-2998 colon
[11] = test system: HCT-116 colon
[12] = test system: HCT-15 colon
[13] = test system: HL-60(TB) leukemia
[14] = test system: HOP-62 NSCLC
[15] = test system: HT29 colon
[16] = test system: IGROV1 ovarian
[17] = test system: K-562 leukemia
[18] = test system: KM12 colon
[19] = test system: LOX IMVI melanoma
[20] = test system: M14 melanoma
[21] = test system: MALME-3M melanoma
[22] = test system: MCF7 breast
[23] = test system: MDA-MB-231 breast
[24] = test system: MDA-MB-435
[25] = test system: MOLT-4 leukemia
[26] = test system: NCI-H226 lung
[27] = test system: NCI-H23 lung
[28] = test system: NCI-H460 lung
[29] = test system: NCI-H522 lung
[30] = test system: NCI/ADR-RES ovarian
[31] = test system: OVCAR-3 ovarian
[32] = test system: OVCAR-4 ovarian
[33] = test system: OVCAR-5 ovarian
[34] = test system: OVCAR-8 ovarian
[35] = test system: PC-3 prostate
[36] = test system: RPMI-8226 leukemia
[37] = test system: SF-268 CNS
[38] = test system: SF-295 CNS
[39] = test system: SF-539 CNS
[40] = test system: SK-MEL-2 melanoma
[41] = test system: SK-MEL-5 melanoma
[42] = test system: SK-OV-3 ovarian
[43] = test system: SN12C renal
[44] = test system: SNB-19 CNS
[45] = test system: SNB-75 CNS
[46] = test system: SR leukemia
[47] = test system: T-47D breast
[48] = test system: TK-10 renal
[49] = test system: U251 CNS
[50] = test system: UACC-257 melanoma
[51] = test system: UACC-62 melanoma
[52] = test system: UO-31 renal

COc1cc(C(=O)/C=C/c2c(-c3cccs3)nc3sccn23)cc(OC)c1OC gave a GI50 [1] of 1530 nM, a TGI [1] of 5940 nM and a GI50 [2] of 1580 nM. For the same molecule, the TGI [2] was 5300 nM, the GI50 [3] was 2160 nM and the TGI [3] was 7520 nM. The GI50 [4] was 1790 nM, the TGI [4] was 11400 nM and the GI50 [5] was 1790 nM. It also gave a TGI [5] of 17000 nM, a GI50 [6] of 565 nM and a TGI [6] greater than 100000 nM. It also gave a GI50 [7] of 1650 nM, a TGI [7] of 3320 nM and a GI50 [8] of 518 nM. For the same molecule, the TGI [8] was 1890 nM, the GI50 [9] was 2410 nM and the TGI [9] was greater than 100000 nM. It also gave a GI50 [10] of 814 nM, a TGI [10] of 2000 nM and a GI50 [11] of 1090 nM. For the same molecule, the TGI [11] was 3990 nM, the GI50 [12] was 839 nM and the TGI [12] was 3850 nM. It also gave a GI50 [13] of 1190 nM, a TGI [13] of 4460 nM and a GI50 [14] of 2410 nM. For the same molecule, the TGI [14] was 6440 nM, the GI50 [15] was 1120 nM and the TGI [15] was 3960 nM. It also gave a GI50 [16] of 462 nM, a TGI [16] of 1370 nM and a GI50 [17] of 445 nM. The TGI [17] was greater than 100000 nM, the GI50 [18] was 342 nM and the TGI [18] was 1090 nM. For the same molecule, the GI50 [19] was 1060 nM, the TGI [19] was 2500 nM and the GI50 [20] was 2510 nM. For the same molecule, the TGI [20] was 27200 nM, the GI50 [21] was 3280 nM and the TGI [21] was 43400 nM. It also gave a GI50 [22] of 724 nM, a TGI [22] of 88400 nM and a GI50 [23] of 1550 nM. It also gave a TGI [23] of 9270 nM, a GI50 [24] of 592 nM and a TGI [24] of 60100 nM. For the same molecule, the GI50 [25] was 1020 nM, the TGI [25] was 4450 nM and the GI50 [26] was 2460 nM. The TGI [26] was 7460 nM, the GI50 [27] was 814 nM and the TGI [27] was 6420 nM. For the same molecule, the GI50 [28] was 600 nM, the TGI [28] was 1990 nM and the GI50 [29] was 260 nM. The TGI [29] was 866 nM, the GI50 [30] was 464 nM and the TGI [30] was 4060 nM. For the same molecule, the GI50 [31] was 1010 nM, the TGI [31] was 2730 nM and the GI50 [32] was 1970 nM. For the same molecule, the TGI [32] was 53200 nM, the GI50 [33] was 4740 nM and the TGI [33] was 27800 nM. It also gave a GI50 [34] of 651 nM, a TGI [34] of 3700 nM and a GI50 [35] of 731 nM. For the same molecule, the TGI [35] was 6170 nM, the GI50 [36] was 448 nM and the TGI [36] was 3680 nM. It also gave a GI50 [37] of 1320 nM, a TGI [37] of 6300 nM and a GI50 [38] of 955 nM. For the same molecule, the TGI [38] was 9940 nM, the GI50 [39] was 1740 nM and the TGI [39] was 4260 nM. The GI50 [40] was 319 nM, the TGI [40] was 1280 nM and the GI50 [41] was 1060 nM. For the same molecule, the TGI [41] was 2490 nM, the GI50 [42] was 2150 nM and the TGI [42] was 6150 nM. It also gave a GI50 [43] of 1920 nM, a TGI [43] of 10800 nM and a GI50 [44] of 2140 nM. The TGI [44] was 13500 nM, the GI50 [45] was 1280 nM and the TGI [45] was 8160 nM. It also gave a GI50 [46] of 264 nM, a TGI [46] of 2470 nM and a GI50 [47] of 789 nM. For the same molecule, the TGI [47] was 4710 nM, the GI50 [48] was 2080 nM and the TGI [48] was greater than 100000 nM. It also gave a GI50 [49] of 904 nM, a TGI [49] of 5340 nM and a GI50 [50] of 1140 nM. It also gave a TGI [50] of 3710 nM, a GI50 [51] of 1380 nM and a TGI [51] of 3720 nM. For the same molecule, the GI50 [52] was 784 nM and the TGI [52] was 4700 nM.
